Assay: Compound was tested for their chelating potential (free ligand) determined by distribution coefficient method.
Format: ADME
Conditions: octanol/water

| Structure (SMILES) | mean log D |
| --- | --- |
| CCCCCCn1ccc(=O)c(O)c1C | 1.9 |
| CCCCCn1ccc(=O)c(O)c1C | 1.24 |

Same assay, conditions: octanol/water; read-out: mean log D

| Structure (SMILES) | logD |
| --- | --- |
| NCCn1ccc(=O)c(O)c1 | -0.66 |
| CCCOCc1cc(=O)c(O)co1 | 0.3 |
| CCCc1oc(C)cc(=O)c1O | 1.4 |
| COCc1cc(=O)c(O)co1 | -0.62 |
| CCc1occc(=O)c1O [E637] | 0.63 |
| O=c1cccccc1O [TROPOLONE] | -0.14 |
| Cc1cc(=O)c(O)co1 | -0.59 |
| CCn1cccc(O)c1=O | 0.2 |
| CCCCOCc1cc(=O)c(O)co1 | 0.78 |
| CCCCc1oc(C)cc(=O)c1O | 1.92 |
| CCCCn1cccc(O)c1=O | 1.18 |
| Cc1occc(=O)c1O [MALTOL] | 0.05 |
| CCCCn1ccc(=O)c(O)c1C | 0.71 |
| Cn1cccc(O)c1=O | -0.28 |
| CCCn1cccc(O)c1=O | 0.69 |
| CCc1oc(C)cc(=O)c1O | 1.07 |
| O=c1ccocc1O | -0.92 |
| CCOCc1cc(=O)c(O)co1 | -0.38 |
| Cc1cc(=O)c(O)c(C)o1 | 0.44 |
| Oc1cccc2cccnc12 [OXYQUINOLINE] | 1.87 |

Source: ChEMBL document CHEMBL1129080, “Synthesis, physicochemical properties, and biological evaluation of hydroxypyranones and hydroxypyridinones: novel bidentate ligands for cell-labeling” (J Med Chem, 1996)
